Measurements as given in paper PMC12454493, “Insight on novel sulfamoylphenyl pyrazole derivatives as anticancer carbonic anhydrase inhibitors” (Molecular Diversity, 2024).
Values joined by “and” are separate entries in the source; they are usually repeats but may differ in a detail not shown here. Equal values may be shown once.

Experiments:
HCT-116 = assay: NCI-60 one-dose SRB screen (Colon Cancer); assay type: cell-based; settings: Homo sapiens, single dose 10 µM, 48 h, read-out: Growth inhibition percent (GI %)
Procedure: (§1) The National Cancer Institute (NCI) Developmental Therapeutic Program (www.dtp.nci.nih.gov) selected the 20 novel synthesized compounds 4a-e, 5a-e, 6a-c, 9a-e, 10 and 11 to test for their anticancer activity at a single dose of 10 µM using SRB assay. […] Supplementary Data S3; Table S1 presents the detailed screening results of the most promising compounds. The preliminary screening’s detailed results for the remaining compounds are elucidated in the (Supplementary Data S3; Table S2).
(§2) The guidelines of the Drug Evaluation Branch’s protocol at the NCI in Bethesda served as the basis for the in vitro anticancer screening assays. at one dose 10 µM against a panel of 60 cancer cell lines. The human tumor cell lines used belonged to nine panels: leukemia, melanoma, lung, colon, CNS, ovarian, renal, prostate and breast cancers using the sulforhodamine B (SRB) assay in a 48 h drug exposure protocol.

SW-620 = assay: NCI-60 one-dose SRB screen (Colon Cancer); assay type: cell-based; settings: Homo sapiens, single dose 10 µM, 48 h, read-out: Growth inhibition percent (GI %)
Procedure: as §1, §2

HCC-2998 = assay: NCI-60 one-dose SRB screen (Colon Cancer); assay type: cell-based; settings: Homo sapiens, single dose 10 µM, 48 h, read-out: Growth inhibition percent (GI %)
Procedure: as §1, §2

KM12 = assay: NCI-60 one-dose SRB screen (Colon Cancer); assay type: cell-based; settings: Homo sapiens, single dose 10 µM, 48 h, read-out: Growth inhibition percent (GI %)
Procedure: as §1, §2

HCT-15 = assay: NCI-60 one-dose SRB screen (Colon Cancer); assay type: cell-based; settings: Homo sapiens, single dose 10 µM, 48 h, read-out: Growth inhibition percent (GI %)
Procedure: as §1, §2

HT29 = assay: NCI-60 one-dose SRB screen (Colon Cancer); assay type: cell-based; settings: Homo sapiens, HT-29, single dose 10 µM, 48 h, read-out: Growth inhibition percent (GI %)
Procedure: as §1, §2

COLO 205 = assay: NCI-60 one-dose SRB screen (Colon Cancer); assay type: cell-based; settings: Homo sapiens, single dose 10 µM, 48 h, read-out: Growth inhibition percent (GI %)
Procedure: as §1, §2

MDA-MB-435 = assay: NCI-60 one-dose SRB screen (Melanoma); assay type: cell-based; settings: Homo sapiens, single dose 10 µM, 48 h, read-out: Growth inhibition percent (GI %)
Procedure: as §1, §2

UACC-257 = assay: NCI-60 one-dose SRB screen (Melanoma); assay type: cell-based; settings: Homo sapiens, single dose 10 µM, 48 h, read-out: Growth inhibition percent (GI %)
Procedure: as §1, §2

SK-MEL-28 = assay: NCI-60 one-dose SRB screen (Melanoma); assay type: cell-based; settings: Homo sapiens, single dose 10 µM, 48 h, read-out: Growth inhibition percent (GI %)
Procedure: as §1, §2

SK-MEL-5 = assay: NCI-60 one-dose SRB screen (Melanoma); assay type: cell-based; settings: Homo sapiens, single dose 10 µM, 48 h, read-out: Growth inhibition percent (GI %)
Procedure: as §1, §2

LOX IMVI = assay: NCI-60 one-dose SRB screen (Melanoma); assay type: cell-based; settings: Homo sapiens, single dose 10 µM, 48 h, read-out: Growth inhibition percent (GI %)
Procedure: as §1, §2

MALME-3M = assay: NCI-60 one-dose SRB screen (Melanoma); assay type: cell-based; settings: Homo sapiens, single dose 10 µM, 48 h, read-out: Growth inhibition percent (GI %)
Procedure: as §1, §2

UACC-62 = assay: NCI-60 one-dose SRB screen (Melanoma); assay type: cell-based; settings: Homo sapiens, single dose 10 µM, 48 h, read-out: Growth inhibition percent (GI %)
Procedure: as §1, §2

M14 = assay: NCI-60 one-dose SRB screen (Melanoma); assay type: cell-based; settings: Homo sapiens, single dose 10 µM, 48 h, read-out: Growth inhibition percent (GI %)
Procedure: as §1, §2

RPMI-8226 = assay: NCI-60 one-dose SRB screen (Leukemia); assay type: cell-based; settings: Homo sapiens, single dose 10 µM, 48 h, read-out: Growth inhibition percent (GI %)
Procedure: as §1, §2

SR = assay: NCI-60 one-dose SRB screen (Leukemia); assay type: cell-based; settings: Homo sapiens, single dose 10 µM, 48 h, read-out: Growth inhibition percent (GI %)
Procedure: as §1, §2

K-562 = assay: NCI-60 one-dose SRB screen (Leukemia); assay type: cell-based; settings: Homo sapiens, K562, single dose 10 µM, 48 h, read-out: Growth inhibition percent (GI %)
Procedure: as §1, §2

CCRF-CEM = assay: NCI-60 one-dose SRB screen (Leukemia); assay type: cell-based; settings: Homo sapiens, single dose 10 µM, 48 h, read-out: Growth inhibition percent (GI %)
Procedure: as §1, §2

MOLT-4 = assay: NCI-60 one-dose SRB screen (Leukemia); assay type: cell-based; settings: Homo sapiens, single dose 10 µM, 48 h, read-out: Growth inhibition percent (GI %)
Procedure: as §1, §2

HL-60(TB) = assay: NCI-60 one-dose SRB screen (Leukemia); assay type: cell-based; settings: Homo sapiens, single dose 10 µM, 48 h, read-out: Growth inhibition percent (GI %)
Procedure: as §1, §2

PC-3 = assay: NCI-60 one-dose SRB screen (Prostate Cancer); assay type: cell-based; settings: Homo sapiens, single dose 10 µM, 48 h, read-out: Growth inhibition percent (GI %)
Procedure: as §1, §2

DU-145 = assay: NCI-60 one-dose SRB screen (Prostate Cancer); assay type: cell-based; settings: Homo sapiens, single dose 10 µM, 48 h, read-out: Growth inhibition percent (GI %)
Procedure: as §1, §2

hCA XII = hCA XII (Homo sapiens, UniProt O43570); assay: CA inhibitory activity, spectrophotometric p-NPA assay; assay type: biochemical; settings: p-NPA substrate, pH 7.5, 25 °C, triplicate; read-out: IC50 (µM) ± SD hCA XII
UO-31 = assay: NCI-60 one-dose SRB screen (Renal Cancer); assay type: cell-based; settings: Homo sapiens, single dose 10 µM, 48 h, read-out: Growth inhibition percent (GI %)
Procedure: as §1, §2

A498 = assay: NCI-60 one-dose SRB screen (Renal Cancer); assay type: cell-based; settings: Homo sapiens, single dose 10 µM, 48 h, read-out: Growth inhibition percent (GI %)
Procedure: as §1, §2

ACHN = assay: NCI-60 one-dose SRB screen (Renal Cancer); assay type: cell-based; settings: Homo sapiens, single dose 10 µM, 48 h, read-out: Growth inhibition percent (GI %)
Procedure: as §1, §2

SN12C = assay: NCI-60 one-dose SRB screen (Renal Cancer); assay type: cell-based; settings: Homo sapiens, single dose 10 µM, 48 h, read-out: Growth inhibition percent (GI %)
Procedure: as §1, §2

CAKI-1 = assay: NCI-60 one-dose SRB screen (Renal Cancer); assay type: cell-based; settings: Homo sapiens, single dose 10 µM, 48 h, read-out: Growth inhibition percent (GI %)
Procedure: as §1, §2

Chain of hCA XII (O43570 25-354): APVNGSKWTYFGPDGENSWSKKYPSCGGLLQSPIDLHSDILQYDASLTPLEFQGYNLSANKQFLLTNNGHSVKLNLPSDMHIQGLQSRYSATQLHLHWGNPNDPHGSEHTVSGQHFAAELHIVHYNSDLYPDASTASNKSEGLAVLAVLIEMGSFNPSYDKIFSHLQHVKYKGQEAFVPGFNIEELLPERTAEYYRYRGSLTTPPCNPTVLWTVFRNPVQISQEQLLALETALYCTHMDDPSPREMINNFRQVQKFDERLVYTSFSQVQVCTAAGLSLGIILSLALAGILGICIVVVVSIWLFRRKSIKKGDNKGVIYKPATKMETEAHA

SMILES: NS(=O)(=O)c1ccc(NC(=O)COC(=O)c2cn(-c3ccc(S(N)(=O)=O)cc3)nc2-c2ccccc2)cc1 [Compound 4a, 2-Oxo-2-[(4-sulfamoylphenyl)amino] ethyl 3-phenyl-1-(4-sulfamoylphenyl)-1H-pyrazole-4-carboxylate]
- inhibition at 10 µM (HCT-116): 27.8%
- inhibition at 10 µM (SW-620): < 5%
- inhibition at 10 µM (HCC-2998): < 5%
- inhibition at 10 µM (KM12): < 5%
- inhibition at 10 µM (HCT-15): < 5%
- inhibition at 10 µM (HT29): < 5%
- inhibition at 10 µM (COLO 205): < 5%
- inhibition at 10 µM (MDA-MB-435): < 5%
- inhibition at 10 µM (UACC-257): < 5%
- inhibition at 10 µM (SK-MEL-28): < 5%
- inhibition at 10 µM (SK-MEL-5): < 5%
- inhibition at 10 µM (LOX IMVI): < 5%
- inhibition at 10 µM (MALME-3M): 8.55%
- inhibition at 10 µM (UACC-62): < 5%
- inhibition at 10 µM (M14): 23.2%
- inhibition at 10 µM (RPMI-8226): < 5%
- inhibition at 10 µM (SR): < 5%
- inhibition at 10 µM (K-562): 16.7%
- inhibition at 10 µM (CCRF-CEM): < 5%
- inhibition at 10 µM (MOLT-4): < 5%
- inhibition at 10 µM (HL-60(TB)): 16.6%
- inhibition at 10 µM (PC-3): < 5%
- inhibition at 10 µM (DU-145): < 5%
- IC50 (hCA XII): 0.22 µM and 0.226 µM
- inhibition at 10 µM (UO-31): 15%
- inhibition at 10 µM (A498): < 5%
- inhibition at 10 µM (ACHN): < 5%
- inhibition at 10 µM (SN12C): < 5%
- inhibition at 10 µM (CAKI-1): 11.6%
